Four compounds from ChEMBL document CHEMBL4028801, “A multifactorial approach to hepatobiliary transporter assessment enables improved therapeutic compound development” (Toxicol Sci, 2013) can be followed below.

Data set [1] in a line: Ratio of drug concentration at steady state in human at 750 mg, po TID or 1250 mg, po BID after 12 hrs to IC50 for human BSEP overexpressed in Sf9 insect cells. Format: ADME, organism-based. Particulars: in vivo.
For data set [2], the target named is ATP-binding cassette sub-family C member 3 (Homo sapiens, UniProt O15438). In words: Inhibition of human MRP3 overexpressed in Sf9 insect cell membrane vesicles assessed as uptake of [3H]-estradiol-17beta-D-glucuronide in presence of ATP and GSH measured after 10 mins by membrane vesicle transport assay. The format is ADME, cell-based.
ATP-binding cassette sub-family C member 3, sequence (O15438 whole entry): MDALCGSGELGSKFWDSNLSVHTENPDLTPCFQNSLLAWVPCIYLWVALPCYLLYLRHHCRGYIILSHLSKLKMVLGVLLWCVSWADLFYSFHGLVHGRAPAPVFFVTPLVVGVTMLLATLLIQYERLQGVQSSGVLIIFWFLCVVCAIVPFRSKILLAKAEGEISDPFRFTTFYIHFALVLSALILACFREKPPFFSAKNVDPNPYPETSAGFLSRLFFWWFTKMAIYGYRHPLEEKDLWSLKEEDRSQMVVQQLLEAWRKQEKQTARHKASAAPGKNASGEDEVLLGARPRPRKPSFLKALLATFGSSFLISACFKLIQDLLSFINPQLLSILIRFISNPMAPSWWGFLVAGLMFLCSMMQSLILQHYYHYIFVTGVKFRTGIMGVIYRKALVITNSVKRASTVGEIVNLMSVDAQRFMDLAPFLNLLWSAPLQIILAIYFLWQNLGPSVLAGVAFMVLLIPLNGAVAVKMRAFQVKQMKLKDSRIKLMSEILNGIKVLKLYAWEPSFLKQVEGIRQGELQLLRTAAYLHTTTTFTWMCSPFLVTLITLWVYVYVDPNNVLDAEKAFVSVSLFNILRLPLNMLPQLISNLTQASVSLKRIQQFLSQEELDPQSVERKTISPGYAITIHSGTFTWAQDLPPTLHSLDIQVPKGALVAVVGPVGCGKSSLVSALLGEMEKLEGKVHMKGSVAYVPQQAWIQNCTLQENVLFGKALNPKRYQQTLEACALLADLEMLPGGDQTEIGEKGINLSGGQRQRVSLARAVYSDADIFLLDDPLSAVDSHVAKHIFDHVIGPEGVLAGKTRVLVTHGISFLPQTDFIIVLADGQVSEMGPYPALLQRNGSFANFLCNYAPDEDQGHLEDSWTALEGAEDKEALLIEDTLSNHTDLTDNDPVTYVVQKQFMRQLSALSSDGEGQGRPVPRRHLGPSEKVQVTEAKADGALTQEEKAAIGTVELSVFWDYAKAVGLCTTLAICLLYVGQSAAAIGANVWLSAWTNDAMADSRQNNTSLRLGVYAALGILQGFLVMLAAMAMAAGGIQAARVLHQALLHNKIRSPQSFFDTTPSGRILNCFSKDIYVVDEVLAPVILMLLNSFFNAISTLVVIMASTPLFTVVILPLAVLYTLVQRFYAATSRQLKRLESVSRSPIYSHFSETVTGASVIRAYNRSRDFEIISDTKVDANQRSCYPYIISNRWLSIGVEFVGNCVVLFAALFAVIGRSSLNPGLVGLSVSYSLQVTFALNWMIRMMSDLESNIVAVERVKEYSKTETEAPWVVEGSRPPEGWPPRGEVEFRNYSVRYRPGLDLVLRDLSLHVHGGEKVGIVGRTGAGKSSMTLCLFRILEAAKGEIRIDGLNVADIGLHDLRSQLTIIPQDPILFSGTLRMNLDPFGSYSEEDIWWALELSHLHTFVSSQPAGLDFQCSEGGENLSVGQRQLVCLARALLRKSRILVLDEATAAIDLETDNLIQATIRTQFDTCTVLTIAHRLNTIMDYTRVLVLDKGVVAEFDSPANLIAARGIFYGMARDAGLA
Data set [3] concerns the target T1, ATP-binding cassette sub-family C member 4 (Homo sapiens, UniProt O15439).
T1 sequence (O15439 whole entry): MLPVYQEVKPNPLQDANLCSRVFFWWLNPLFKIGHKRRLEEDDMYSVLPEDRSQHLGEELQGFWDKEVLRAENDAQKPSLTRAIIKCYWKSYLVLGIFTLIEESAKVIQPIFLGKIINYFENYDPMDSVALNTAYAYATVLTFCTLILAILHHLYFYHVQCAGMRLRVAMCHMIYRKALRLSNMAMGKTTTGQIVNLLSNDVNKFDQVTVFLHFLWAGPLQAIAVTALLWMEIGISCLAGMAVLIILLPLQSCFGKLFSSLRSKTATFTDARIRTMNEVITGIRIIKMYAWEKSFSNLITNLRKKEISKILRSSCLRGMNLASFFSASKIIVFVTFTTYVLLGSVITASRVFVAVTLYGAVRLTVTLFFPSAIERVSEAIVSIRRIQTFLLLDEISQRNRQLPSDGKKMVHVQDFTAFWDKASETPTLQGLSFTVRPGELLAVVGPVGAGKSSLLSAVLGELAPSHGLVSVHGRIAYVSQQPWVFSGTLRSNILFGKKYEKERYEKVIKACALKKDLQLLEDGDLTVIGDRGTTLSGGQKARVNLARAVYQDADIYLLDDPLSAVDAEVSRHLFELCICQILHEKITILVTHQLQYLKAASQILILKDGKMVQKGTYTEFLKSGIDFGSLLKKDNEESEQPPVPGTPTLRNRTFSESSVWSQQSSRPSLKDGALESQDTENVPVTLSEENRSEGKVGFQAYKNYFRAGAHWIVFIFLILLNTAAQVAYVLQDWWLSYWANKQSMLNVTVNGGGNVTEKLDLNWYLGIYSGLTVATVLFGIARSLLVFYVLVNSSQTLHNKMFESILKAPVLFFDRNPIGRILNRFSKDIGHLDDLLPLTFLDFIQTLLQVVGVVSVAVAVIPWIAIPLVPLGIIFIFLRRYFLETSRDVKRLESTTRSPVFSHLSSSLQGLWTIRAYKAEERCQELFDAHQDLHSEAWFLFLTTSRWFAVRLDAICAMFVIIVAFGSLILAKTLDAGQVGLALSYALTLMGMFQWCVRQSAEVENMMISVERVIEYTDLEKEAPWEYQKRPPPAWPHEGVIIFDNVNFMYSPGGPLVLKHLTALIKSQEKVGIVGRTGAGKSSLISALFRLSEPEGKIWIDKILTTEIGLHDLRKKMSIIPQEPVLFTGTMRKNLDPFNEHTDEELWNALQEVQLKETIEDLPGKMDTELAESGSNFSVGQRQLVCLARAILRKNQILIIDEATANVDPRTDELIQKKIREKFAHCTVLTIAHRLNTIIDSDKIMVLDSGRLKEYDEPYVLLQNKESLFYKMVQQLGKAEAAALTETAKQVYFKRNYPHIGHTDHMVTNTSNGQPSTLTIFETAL
In words: Inhibition of human MRP4 overexpressed in Sf9 cell membrane vesicles assessed as uptake of [3H]-estradiol-17beta-D-glucuronide in presence of ATP and GSH measured after 20 mins by membrane vesicle transport assay. Format: ADME, cell-based.

Data set [4] can be described thus: Ratio of drug concentration at steady state in human at 750 mg, po TID or 1250 mg, po BID after 12 hrs to IC50 for human MRP4 overexpressed in Sf9 insect cells. The format is ADME, organism-based. As to conditions: in vivo.
Data set [5] has as its system Homo sapiens. In words: Drug concentration at steady state in human at 750 mg, po TID or 1250 mg, po BID after 12 hrs. Format: ADME, organism-based. As to conditions: in vivo.
A short description of data set [6]: AUC in human at 750 mg, po TID or 1250 mg, po BID after 12 hrs. More on the design: dose 750 mg, time < 12 hr, route oral. Particulars: in vivo. Format: ADME, organism-based.
Data set [7] has as its target ATP-binding cassette sub-family C member 2 (Homo sapiens, UniProt Q92887). In words: Inhibition of human MRP2 overexpressed in Sf9 cell membrane vesicles assessed as uptake of [3H]-estradiol-17beta-D-glucuronide in presence of ATP and GSH measured after 20 mins by membrane vesicle transport assay.
Data set [8] in a line: Ratio of drug concentration at steady state in human at 1 to 1.5 g, po BID after 12 hrs to IC50 for human MRP4 overexpressed in Sf9 insect cells. Format: ADME, organism-based. As to conditions: in vivo.
A short description of data set [9]: AUC in human at 1 to 1.5 g, po BID after 12 hrs. Particulars: in vivo. Format: ADME, organism-based.
A further data set has as its target Bile salt export pump (Homo sapiens, UniProt O95342). In words: Inhibition of human BSEP overexpressed in Sf9 cell membrane vesicles assessed as uptake of [3H]-taurocholate in presence of ATP measured after 15 to 20 mins by membrane vesicle transport assay. Format: ADME, cell-based.
Data set [10] in a line: Ratio of drug concentration at steady state in human at 1 to 1.5 g, po BID after 12 hrs to IC50 for human BSEP overexpressed in Sf9 insect cells. The format is ADME, organism-based. As to conditions: in vivo.
Data set [11] is described as follows: Drug concentration at steady state in human at 1 to 1.5 g, po BID after 12 hrs. Format: ADME, organism-based. Particulars: in vivo, read-out: Css.
A short description of data set [12]: Ratio of AUC in liver to plasma in Sprague-Dawley rat at 1500 mg/kg, po administered as single oral gavage measured after 24 hrs by Liquid chromatography/tandem mass spectrometry. Particulars: liver and plasma, read-out: Ratio AUC. The format is ADME, organism-based.
Data set [13] in a line: Ratio of drug concentration at steady state in human at 100 mg, po BID to IC50 for human MRP3 overexpressed in Sf9 insect cells. Format: ADME, organism-based. Particulars: in vivo.
Data set [14] in a line: Ratio of drug concentration at steady state in human at 100 mg, po BID to IC50 for human MRP4 overexpressed in Sf9 insect cells. The format is ADME, organism-based. As to conditions: in vivo.
The test system of data set [15] is Homo sapiens. In words: Drug concentration at steady state in human at 100 mg, po BID. The format is ADME, organism-based. Particulars: in vivo.
Data set [16] can be described thus: AUC in human at 100 mg, po BID. As to conditions: in vivo. The format is ADME, organism-based.
The nature of data set [17]: Ratio of drug concentration at steady state in human at 100 mg, po BID to IC50 for human BSEP overexpressed in Sf9 insect cells. Format: ADME, organism-based. As to conditions: in vivo.
Data set [18] in a line: AUC in patient with osteomyelitis at 1500 mg, po QD after 24 hrs. More on the design: time < 24 hr, dose 1500 mg, route oral. Format: ADME, organism-based. As to conditions: human, in vivo.
A short description of data set [19]: Drug concentration at steady state in patient with osteomyelitis at 1500 mg, po QD after 24 hrs. Format: ADME, organism-based. Particulars: human, in vivo, read-out: Css.
The nature of data set [20]: Ratio of drug concentration at steady state in patient with osteomyelitis at 1500 mg, po QD after 24 hrs to IC50 for human BSEP overexpressed in Sf9 insect cells. Format: ADME, organism-based. Particulars: in vivo.

SMILES strings stand for the structures.

ATP-binding cassette sub-family C member 2, sequence (Q92887 whole entry): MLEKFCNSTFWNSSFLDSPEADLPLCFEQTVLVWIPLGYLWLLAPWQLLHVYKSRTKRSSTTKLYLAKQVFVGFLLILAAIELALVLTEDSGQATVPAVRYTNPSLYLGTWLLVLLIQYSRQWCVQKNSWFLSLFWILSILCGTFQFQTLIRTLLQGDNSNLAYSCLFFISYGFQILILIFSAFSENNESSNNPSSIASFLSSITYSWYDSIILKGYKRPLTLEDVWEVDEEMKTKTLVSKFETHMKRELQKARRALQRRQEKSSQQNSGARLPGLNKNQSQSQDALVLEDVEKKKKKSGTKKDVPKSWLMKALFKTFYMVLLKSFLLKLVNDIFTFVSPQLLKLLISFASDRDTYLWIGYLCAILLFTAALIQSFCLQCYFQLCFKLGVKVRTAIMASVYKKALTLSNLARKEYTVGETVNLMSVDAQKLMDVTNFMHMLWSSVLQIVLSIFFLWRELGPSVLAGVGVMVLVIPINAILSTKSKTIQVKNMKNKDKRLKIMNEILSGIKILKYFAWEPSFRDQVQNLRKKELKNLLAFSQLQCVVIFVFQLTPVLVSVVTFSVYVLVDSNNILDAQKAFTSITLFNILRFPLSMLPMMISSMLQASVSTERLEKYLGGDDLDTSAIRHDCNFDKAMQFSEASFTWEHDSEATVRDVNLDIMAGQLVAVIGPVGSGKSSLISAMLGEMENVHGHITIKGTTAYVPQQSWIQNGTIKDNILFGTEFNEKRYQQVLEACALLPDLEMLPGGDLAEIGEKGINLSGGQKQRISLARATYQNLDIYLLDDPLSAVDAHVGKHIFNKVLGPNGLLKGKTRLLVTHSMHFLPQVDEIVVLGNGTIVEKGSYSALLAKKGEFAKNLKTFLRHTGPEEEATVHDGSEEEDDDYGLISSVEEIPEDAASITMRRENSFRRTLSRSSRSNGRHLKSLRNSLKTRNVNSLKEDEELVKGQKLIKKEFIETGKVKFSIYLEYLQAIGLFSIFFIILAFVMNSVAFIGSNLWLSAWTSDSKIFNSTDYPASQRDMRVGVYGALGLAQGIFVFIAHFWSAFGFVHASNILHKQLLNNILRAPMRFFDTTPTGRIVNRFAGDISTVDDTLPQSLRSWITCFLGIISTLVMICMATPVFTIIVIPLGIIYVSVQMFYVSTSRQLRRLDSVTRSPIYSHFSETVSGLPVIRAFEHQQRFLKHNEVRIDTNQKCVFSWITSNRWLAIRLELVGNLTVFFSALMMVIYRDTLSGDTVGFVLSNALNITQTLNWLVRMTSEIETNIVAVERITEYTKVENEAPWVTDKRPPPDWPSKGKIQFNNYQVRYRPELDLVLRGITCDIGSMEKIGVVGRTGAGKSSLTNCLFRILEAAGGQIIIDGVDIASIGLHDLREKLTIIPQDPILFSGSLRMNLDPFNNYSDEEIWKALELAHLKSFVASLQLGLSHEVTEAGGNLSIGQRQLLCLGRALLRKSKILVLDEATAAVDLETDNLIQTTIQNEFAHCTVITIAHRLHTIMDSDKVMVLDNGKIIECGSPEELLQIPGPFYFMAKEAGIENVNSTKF
Bile salt export pump, sequence (O95342 whole entry): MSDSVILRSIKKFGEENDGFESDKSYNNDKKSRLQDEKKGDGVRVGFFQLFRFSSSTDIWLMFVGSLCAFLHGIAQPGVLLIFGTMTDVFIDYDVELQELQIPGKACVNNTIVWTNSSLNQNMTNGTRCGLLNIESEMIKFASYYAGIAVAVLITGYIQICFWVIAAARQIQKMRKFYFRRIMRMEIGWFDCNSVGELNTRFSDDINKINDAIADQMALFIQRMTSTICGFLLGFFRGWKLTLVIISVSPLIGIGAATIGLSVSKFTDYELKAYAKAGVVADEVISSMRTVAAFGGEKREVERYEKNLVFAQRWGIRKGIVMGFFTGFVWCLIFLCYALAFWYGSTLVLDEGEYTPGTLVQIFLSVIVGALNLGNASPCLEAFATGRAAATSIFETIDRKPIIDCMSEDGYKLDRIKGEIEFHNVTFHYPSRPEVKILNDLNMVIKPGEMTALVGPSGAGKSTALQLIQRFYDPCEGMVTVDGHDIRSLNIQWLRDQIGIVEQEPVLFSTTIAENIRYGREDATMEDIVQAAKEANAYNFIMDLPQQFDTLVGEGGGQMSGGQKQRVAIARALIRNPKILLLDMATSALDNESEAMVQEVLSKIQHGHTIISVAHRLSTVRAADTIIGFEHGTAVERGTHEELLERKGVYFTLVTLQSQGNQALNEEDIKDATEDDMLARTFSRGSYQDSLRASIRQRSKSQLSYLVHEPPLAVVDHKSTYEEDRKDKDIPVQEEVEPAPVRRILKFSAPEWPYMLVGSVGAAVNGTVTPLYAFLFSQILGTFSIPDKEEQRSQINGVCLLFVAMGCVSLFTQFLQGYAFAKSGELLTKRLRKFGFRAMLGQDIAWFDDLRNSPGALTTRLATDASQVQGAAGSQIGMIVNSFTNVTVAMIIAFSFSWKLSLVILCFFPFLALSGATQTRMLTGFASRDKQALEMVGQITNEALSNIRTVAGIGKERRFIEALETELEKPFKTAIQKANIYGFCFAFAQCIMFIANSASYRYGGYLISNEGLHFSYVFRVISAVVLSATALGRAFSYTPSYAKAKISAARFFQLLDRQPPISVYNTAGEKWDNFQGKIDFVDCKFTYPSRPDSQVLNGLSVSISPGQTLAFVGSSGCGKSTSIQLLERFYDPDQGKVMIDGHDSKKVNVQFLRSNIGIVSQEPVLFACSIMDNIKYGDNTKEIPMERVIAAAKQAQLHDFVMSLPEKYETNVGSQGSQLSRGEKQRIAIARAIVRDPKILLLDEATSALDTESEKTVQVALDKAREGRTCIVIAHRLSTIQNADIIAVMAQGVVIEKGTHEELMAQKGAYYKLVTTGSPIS

On to `Cc1c(O)cccc1C(=O)N[C@@H](CSc1ccccc1)[C@H](O)CN1C[C@H]2CCCC[C@H]2C[C@H]1C(=O)NC(C)(C)C`, for which the Ratio in [1] came to 0.549; in data set [4] it was 0.067. For the same compound, the IC50 is over 133 µM in data set [2], 97 µM in [3] and over 133 µM in data set [7]. The Css in the data set with Homo sapiens [5] was 6.482 µM. Further, the exposure (AUC) at 12 h in data set [6] was found to be 77.8 µM·h.

With `COc1c(C)c2c(c(O)c1C/C=C(\C)CCC(=O)OCCN1CCOCC1)C(=O)OC2` [MYCOPHENOLATE MOFETIL], the IC50 in [2] is over 133 µM; in [3] it was 83 µM; at Bile salt export pump it was 76 µM; in [7] it was over 133 µM. The Ratio in data set [8] turned out to be 45.853; in data set [10] it was 49.945. Further, in data set [9], the AUC at 12 h was determined as 45700 ng·h/mL. Besides, the concentration at 12 h in data set [11] was 3810 µM.

As to `CCCCNC(=O)c1ccc(Oc2ccc(CC(=O)O)cc2OC)c(NS(=O)(=O)c2ccc(Cl)cc2Cl)c1`, the IC50 was 1.1 µM in data set [2], 13.5 µM in data set [3] and 11.5 µM at Bile salt export pump. In addition, the Kp at 24 h in data set [12] turned out to be 27. Besides, the Ratio is on record as 2.2 in data set [13], 0.18 in data set [14] and 0.21 in [17]. The Css with Homo sapiens [15] was 2.4 µM. In [16], this compound returned an AUC of 32800 ng·h/mL.

On to `CC(=O)O[C@H]1C[C@@]2(C)[C@@H](C[C@@H](O)[C@H]3[C@@]4(C)CC[C@@H](O)[C@@H](C)[C@@H]4CC[C@@]32C)/C1=C(\CCC=C(C)C)C(=O)O` [FUSIDIC ACID], for which, in data set [18], the exposure (AUC) at 24 h is 6390 µM·h. The IC50 in data set [2], in data set [3] and in data set [7] was over 133 µM throughout. Besides, the concentration at 24 h in data set [19] amounted to 266 µM. In data set [20], the Ratio was 26.38.

As usually defined, the IC50 is the concentration that inhibits the measured activity by half. The term AUC denotes the area under the concentration-time curve, a measure of exposure. Read a low AUC as low exposure.
